Data on eight molecules can be found in patent US20200031785A1, “METHODS FOR TREATING CHRONIC PAIN AND OPIOID DEPENDENCE USING ADENYLYL CYCLASE INHIBITORS” (Purdue Research Foundation, priority 2017, published 2020).

Series [1] deals with T1, hAC5 (Homo sapiens, UniProt O95622).
T1 construct: expressed in transfected cells
The series is described as follows: Cyclic AMP accumulation in stable HEK-AC5 cells, stimulated with 300 nM forskolin. It counts as cell-based. Conditions: % inhibition at 30 μM, 300 nM forskolin-stimulated, negative = potentiated response, n = 2. As for the experimental part: (§1) Cyclic AMP accumulation was measured as previously described (Brust, et al., J. Pharmacol. Exp. Ther. 352, 480-493(2015)). Briefly, cryopreserved cells were thawed, resuspended in optiMEM (Life Technologies), and plated in white, flat bottom, low-volume, tissue culture-treated 384 well plates (PerkinElmer, Shelton, Conn.). Plates with cells were incubated in a 37° C. humidified incubator for 1 h. Inhibitors were added and plates were incubated at room temperature for 30 min followed by the addition of AC stimulants in the presence of 500 μM IBMX. Cells were incubated at room temperature for 1 h and cAMP accumulation was measured using Cisbio's cAMP kit (Cisbio Bioassays, Bedford, Mass.) according to the manufacturer's instructions.

The next series has as its target T2, hAC8 (Homo sapiens, UniProt P40145).
T2 construct: expressed in transfected cells
The series is described as follows: Cyclic AMP accumulation in HEK cells stably expressing AC8, stimulated with A23187 (HTRF). Conditions: for hAC8 % Inhib.: % inhibition at 30 μM (negative values indicate a potentiated response); for IC50: stable HEK cell line, A23187-stimulated cAMP accumulation, n ≥ 3, read-out: hAC8 IC50. It counts as cell-based.

In a further series the target is T3, hAC1 (Homo sapiens, UniProt Q08828).
T3 construct: expressed in transfected cells
T3 sequence (Q08828 whole entry): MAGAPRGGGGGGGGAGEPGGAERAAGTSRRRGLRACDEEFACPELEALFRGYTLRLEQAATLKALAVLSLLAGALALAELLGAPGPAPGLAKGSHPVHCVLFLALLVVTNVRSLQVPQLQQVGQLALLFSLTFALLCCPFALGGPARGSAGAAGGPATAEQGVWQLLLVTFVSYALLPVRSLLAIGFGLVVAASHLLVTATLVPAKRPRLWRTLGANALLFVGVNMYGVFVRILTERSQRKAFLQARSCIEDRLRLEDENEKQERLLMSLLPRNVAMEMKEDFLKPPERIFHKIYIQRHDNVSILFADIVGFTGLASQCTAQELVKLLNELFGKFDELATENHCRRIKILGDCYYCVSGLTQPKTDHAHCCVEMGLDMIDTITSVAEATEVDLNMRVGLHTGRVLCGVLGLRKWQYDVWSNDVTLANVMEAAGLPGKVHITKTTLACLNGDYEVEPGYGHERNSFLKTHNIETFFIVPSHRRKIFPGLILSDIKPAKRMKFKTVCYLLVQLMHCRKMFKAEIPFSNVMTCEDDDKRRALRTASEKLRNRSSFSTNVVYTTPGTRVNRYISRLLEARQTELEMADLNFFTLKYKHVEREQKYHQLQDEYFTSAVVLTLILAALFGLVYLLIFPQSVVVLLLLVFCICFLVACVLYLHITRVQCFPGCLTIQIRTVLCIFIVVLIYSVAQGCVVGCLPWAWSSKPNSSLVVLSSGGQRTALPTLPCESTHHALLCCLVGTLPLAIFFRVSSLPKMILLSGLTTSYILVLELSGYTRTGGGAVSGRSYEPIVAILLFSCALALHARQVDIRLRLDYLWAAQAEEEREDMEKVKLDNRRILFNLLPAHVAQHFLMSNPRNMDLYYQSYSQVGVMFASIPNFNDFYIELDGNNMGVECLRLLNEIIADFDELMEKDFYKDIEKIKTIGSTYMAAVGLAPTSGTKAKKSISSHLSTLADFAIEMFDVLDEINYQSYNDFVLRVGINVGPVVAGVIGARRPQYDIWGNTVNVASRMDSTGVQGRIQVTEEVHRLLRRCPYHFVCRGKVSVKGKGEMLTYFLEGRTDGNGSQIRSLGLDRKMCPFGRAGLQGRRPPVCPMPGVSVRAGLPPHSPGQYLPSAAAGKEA
The experiment in a line: Cyclic AMP accumulation in HEK cells stably expressing AC1, stimulated with A23187 (HTRF). It is filed as cell-based. Conditions: for Selectivity AC1 vs AC8: AC8 IC50/AC1 IC50, in the absence of AC8 IC50, estimate based on IC50 ≥30 μM; for hAC1 % Inhib. / IC50: stable HEK cell line, A23187-stimulated cAMP accumulation, n ≥ 3; for IC50: read-out: hAC1 IC50.

In series [2] the test system is AC1-HEK cells.
Experimental: Cell viability assays were conducted with HEK-AC1 cells following plating and compound incubation protocols identical to the procedures described above in “Cyclic AMP assays in cells”. Cell viability was measured as a percentage of vehicle using 2% Triton X-100 (Sigma-Aldrich) as a control. The CellTiter-Glo® Luminescent Cell Viability Assay kit from Promega (Madison, Wis.) was employed to assess cell viability according to the manufacturer's instructions. Luminescence counts were measured using a Synergy 4.
Series [3] addresses T4, hAC2 (Homo sapiens, UniProt Q08462).
T4 construct: expressed in transfected cells
The series is described as follows: Cyclic AMP accumulation in stable HEK-AC2 cells, stimulated with 100 nM PMA. Conditions: % inhibition at 30 μM, 100 nM PMA-stimulated, negative = potentiated response, n = 2. It is filed as cell-based. How it is done:
as §1

For the next series, the system named is chronic pain responses. Conditions: both mice and rats; cited from earlier work.
Series [4] deals with T1, hAC5. Conditions: data from Brust et al. 2017; % inhibition at 30 μM, forskolin-stimulated, negative = potentiated; cited from earlier work.
In series [5] the test system is AC1-HEK cells. Conditions: data from Brust et al. 2017; cited from earlier work.
In series [6] the target is T4, hAC2. Conditions: data from Brust et al. 2017; % inhibition at 30 μM, PMA-stimulated, negative = potentiated; cited from earlier work.

Like-named read-outs stand apart in the source and are kept apart here.

T1 sequence (O95622 whole entry): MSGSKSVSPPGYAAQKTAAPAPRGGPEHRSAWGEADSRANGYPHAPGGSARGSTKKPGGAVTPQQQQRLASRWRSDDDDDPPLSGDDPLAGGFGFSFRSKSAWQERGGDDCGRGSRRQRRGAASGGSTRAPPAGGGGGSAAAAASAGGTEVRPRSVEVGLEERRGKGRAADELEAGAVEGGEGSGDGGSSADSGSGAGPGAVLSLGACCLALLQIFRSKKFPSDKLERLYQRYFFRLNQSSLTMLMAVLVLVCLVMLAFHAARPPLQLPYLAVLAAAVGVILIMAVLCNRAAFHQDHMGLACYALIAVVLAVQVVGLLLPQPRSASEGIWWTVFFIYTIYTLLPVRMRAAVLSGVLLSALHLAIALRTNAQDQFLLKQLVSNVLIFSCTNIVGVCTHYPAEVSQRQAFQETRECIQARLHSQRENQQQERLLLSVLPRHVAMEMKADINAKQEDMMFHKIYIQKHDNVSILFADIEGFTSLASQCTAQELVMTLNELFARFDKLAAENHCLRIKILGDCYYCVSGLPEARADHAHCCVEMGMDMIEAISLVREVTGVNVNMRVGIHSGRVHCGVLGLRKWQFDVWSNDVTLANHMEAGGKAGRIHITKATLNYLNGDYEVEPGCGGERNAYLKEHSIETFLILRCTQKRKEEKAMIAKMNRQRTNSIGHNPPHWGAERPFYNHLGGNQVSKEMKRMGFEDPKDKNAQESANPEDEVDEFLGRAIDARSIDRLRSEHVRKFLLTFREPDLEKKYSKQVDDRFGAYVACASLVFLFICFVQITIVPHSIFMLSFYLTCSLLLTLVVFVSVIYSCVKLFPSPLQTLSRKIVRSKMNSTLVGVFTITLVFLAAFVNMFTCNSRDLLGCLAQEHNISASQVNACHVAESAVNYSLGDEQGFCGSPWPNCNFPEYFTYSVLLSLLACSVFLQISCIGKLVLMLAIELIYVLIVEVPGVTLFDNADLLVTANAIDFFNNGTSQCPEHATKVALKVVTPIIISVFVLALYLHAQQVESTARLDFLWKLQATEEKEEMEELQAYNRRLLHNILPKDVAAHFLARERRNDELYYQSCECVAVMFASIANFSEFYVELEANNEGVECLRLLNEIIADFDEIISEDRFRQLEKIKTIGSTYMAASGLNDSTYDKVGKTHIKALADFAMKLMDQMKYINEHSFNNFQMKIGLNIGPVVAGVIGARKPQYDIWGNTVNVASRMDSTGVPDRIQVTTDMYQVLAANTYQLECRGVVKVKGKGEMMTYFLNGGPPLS
T4 sequence (Q08462 whole entry): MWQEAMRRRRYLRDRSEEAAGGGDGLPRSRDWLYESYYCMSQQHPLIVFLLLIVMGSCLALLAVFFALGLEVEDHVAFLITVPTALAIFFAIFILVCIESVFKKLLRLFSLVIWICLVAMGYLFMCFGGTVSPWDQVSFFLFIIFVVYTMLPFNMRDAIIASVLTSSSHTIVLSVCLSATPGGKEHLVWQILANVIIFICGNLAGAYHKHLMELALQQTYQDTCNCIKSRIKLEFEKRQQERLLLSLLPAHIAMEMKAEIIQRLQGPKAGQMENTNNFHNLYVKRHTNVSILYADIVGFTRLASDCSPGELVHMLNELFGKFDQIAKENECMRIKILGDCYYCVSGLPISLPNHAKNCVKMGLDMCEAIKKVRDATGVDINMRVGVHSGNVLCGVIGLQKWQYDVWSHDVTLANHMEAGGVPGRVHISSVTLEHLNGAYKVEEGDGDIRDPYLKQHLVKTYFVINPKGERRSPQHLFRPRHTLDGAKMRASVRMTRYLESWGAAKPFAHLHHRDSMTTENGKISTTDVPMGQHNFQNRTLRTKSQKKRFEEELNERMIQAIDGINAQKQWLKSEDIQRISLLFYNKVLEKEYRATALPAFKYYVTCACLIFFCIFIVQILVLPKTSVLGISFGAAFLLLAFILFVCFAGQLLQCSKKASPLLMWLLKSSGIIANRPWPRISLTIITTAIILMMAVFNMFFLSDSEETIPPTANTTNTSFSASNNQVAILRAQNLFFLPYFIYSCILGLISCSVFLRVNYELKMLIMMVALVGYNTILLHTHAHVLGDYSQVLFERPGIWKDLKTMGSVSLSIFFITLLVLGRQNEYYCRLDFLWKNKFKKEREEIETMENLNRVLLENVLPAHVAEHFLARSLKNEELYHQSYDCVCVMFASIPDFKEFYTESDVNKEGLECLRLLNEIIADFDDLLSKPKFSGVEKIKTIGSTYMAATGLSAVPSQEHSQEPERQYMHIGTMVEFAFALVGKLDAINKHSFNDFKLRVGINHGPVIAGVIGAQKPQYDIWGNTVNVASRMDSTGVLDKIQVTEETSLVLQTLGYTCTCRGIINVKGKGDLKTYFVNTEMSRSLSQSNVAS
T2 sequence (P40145 whole entry): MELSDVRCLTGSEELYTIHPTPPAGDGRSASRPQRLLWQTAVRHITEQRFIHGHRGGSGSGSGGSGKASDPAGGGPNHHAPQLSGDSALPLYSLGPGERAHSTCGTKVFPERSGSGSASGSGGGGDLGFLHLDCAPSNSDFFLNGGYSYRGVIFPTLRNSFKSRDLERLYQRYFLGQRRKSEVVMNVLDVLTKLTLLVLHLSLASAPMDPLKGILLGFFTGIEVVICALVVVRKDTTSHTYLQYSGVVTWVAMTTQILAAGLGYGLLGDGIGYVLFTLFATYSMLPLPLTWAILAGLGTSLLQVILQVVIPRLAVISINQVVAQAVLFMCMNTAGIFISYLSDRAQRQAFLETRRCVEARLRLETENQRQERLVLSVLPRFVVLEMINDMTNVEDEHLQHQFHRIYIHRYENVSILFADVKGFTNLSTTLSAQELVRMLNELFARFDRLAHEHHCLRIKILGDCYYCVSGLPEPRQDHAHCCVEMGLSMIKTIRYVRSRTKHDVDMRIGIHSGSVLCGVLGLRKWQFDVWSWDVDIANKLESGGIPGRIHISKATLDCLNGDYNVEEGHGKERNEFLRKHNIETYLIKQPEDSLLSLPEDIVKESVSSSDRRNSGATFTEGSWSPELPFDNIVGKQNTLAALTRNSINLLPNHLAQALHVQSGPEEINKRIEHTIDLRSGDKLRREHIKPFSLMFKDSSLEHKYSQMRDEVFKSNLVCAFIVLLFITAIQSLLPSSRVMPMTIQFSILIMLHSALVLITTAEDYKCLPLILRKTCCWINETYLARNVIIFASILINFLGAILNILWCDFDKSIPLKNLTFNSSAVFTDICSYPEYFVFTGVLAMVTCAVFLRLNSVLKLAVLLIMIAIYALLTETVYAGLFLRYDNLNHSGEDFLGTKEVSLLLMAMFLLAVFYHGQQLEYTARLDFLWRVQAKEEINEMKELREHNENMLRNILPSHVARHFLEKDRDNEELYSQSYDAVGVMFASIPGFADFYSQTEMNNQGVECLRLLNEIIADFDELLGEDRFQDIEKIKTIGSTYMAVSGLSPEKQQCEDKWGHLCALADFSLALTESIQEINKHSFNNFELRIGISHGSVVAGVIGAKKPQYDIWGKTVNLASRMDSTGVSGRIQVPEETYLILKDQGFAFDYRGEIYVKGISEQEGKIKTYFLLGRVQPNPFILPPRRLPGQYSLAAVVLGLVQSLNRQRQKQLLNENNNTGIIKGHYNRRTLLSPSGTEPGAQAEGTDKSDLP

Consider `O=C(Nc1nnc(-c2ccc3c(c2)OCCO3)o1)c1ccc(Br)cc1` [F0608-0011], for which the “hAC5 % Inhib.” value on hAC5 [1] is −10%. Besides, on hAC8, the “hAC8 % Inhib.” value is reported as 79 ± 1% and the half-maximal inhibitory concentration (IC50) is 18 ± 2 µM. At hAC1, the “Selectivity AC1 vs AC8” value is on record as 9-fold, the “hAC1 % Inhib.” value turned out to be 101 ± 1% and the IC50 stood at 2 ± 0.2 µM. For the same molecule, in the series with AC1-HEK cells [2], the “Viability % Vehicle” value is 125 ± 3 % Vehicle. Moreover, on hAC2 [3], the “hAC2 % Inhib.” value was -7%.
With `O=C(Nc1nnc(-c2ccc3c(c2)CCCC3)o1)c1ccccc1` [F0608-0538], the “hAC5 % Inhib.” value on hAC5 [1] is −34%. At hAC8, the “hAC8 % Inhib.” value came out at 76 ± 8% and the half-inhibitory concentration (IC50) came to 21 ± 4 µM. Further, at hAC1, the “Selectivity AC1 vs AC8” value is 10-fold, the “hAC1 % Inhib.” value is given as 101 ± 1% and the IC50 was determined as 2.1 ± 0.4 µM. Moreover, the “Viability % Vehicle” value in the series with AC1-HEK cells [2] came to 118 ± 6 % Vehicle. For the same molecule, the “hAC2 % Inhib.” value at hAC2 [3] is given as -95%.
For the molecule `CCc1cc(=O)[nH]c(-n2nc(C)cc2NC(=O)c2ccccc2F)n1` [F2215-0213], the “hAC5 % Inhib.” value at hAC5 [1] was 9%. Besides, the “hAC8 % Inhib.” value at hAC8 came to 20 ± 1%. Moreover, at hAC1, the “hAC1 % Inhib.” value worked out at 99 ± 1% and the IC50 was found to be 0.5 ± 0.1 µM. The “Viability % Vehicle” value with AC1-HEK cells [2] is 101 ± 17 % Vehicle. For the same molecule, at hAC2 [3], the “hAC2 % Inhib.” value is −70%.
As for `CCc1c(C)nc(-n2nc(C)cc2NC(=O)c2ccco2)[nH]c1=O` [F2215-0772], the “hAC5 % Inhib.” value at hAC5 [1] worked out at 13%. The “hAC8 % Inhib.” value at hAC8 is on record as 34 ± 7%. Moreover, at hAC1, the “Selectivity AC1 vs AC8” value was >30-fold, the “hAC1 % Inhib.” value was 100 ± 1% and the IC50 was 0.9 ± 0.2 µM. Also, in the series on AC1-HEK cells [2], the “Viability % Vehicle” value was 93 ± 1 % Vehicle. Also, at hAC2 [3], the “hAC2 % Inhib.” value is 32%.
For `CSc1ccccc1C(=O)Nc1cc(C)nn1-c1nc2c(c(=O)[nH]1)CCC2` [F2215-0954], on hAC5 [1], the “hAC5 % Inhib.” value is on record as −21%. Further, at hAC8, the “hAC8 % Inhib.” value was determined as 35 ± 8%. At hAC1, the “Selectivity AC1 vs AC8” value is >5-fold, the “hAC1 % Inhib.” value amounted to 99 ± 1% and the IC50 was determined as 5.9 ± 0.4 µM. In addition, the “Viability % Vehicle” value in the series on AC1-HEK cells [2] stood at 106 ± 14 % Vehicle. Further, at hAC2 [3], the “hAC2 % Inhib.” value is recorded as −185%.
With `CSc1cccc(C(=O)Nc2nnc(C3CCCCC3)o2)c1` [F2289-0107], the “hAC5 % Inhib.” value on hAC5 [1] is recorded as -28%. Moreover, the “hAC8 % Inhib.” value on hAC8 worked out at 31 ± 2%. For the same molecule, on hAC1, the “Selectivity AC1 vs AC8” value is >4-fold, the “hAC1 % Inhib.” value was 99 ± 1% and the IC50 is 7.5 ± 2 µM. Besides, in the series on AC1-HEK cells [2], the “Viability % Vehicle” value came out at 117 ± 1 % Vehicle. Besides, the “hAC2 % Inhib.” value at hAC2 [3] is reported as −210%.
Consider `Nc1ncnc2c1ncn2CCNCCCCCO` [NB001], for which the “effect on chronic pain responses (inflammatory and neuropathic)” value in the series with chronic pain responses was “markedly attenuated chronic pain responses”.
`O=c1cc(C(Cl)(Cl)Cl)oc2ccc(Cl)cc12` [ST034307, 6-chloro-2-(trichloromethyl)-4H-chromen-4-one]: the “hAC5 % Inhib.” value on hAC5 [4] is −44%. Besides, in the series on AC1-HEK cells [5], the “Viability % Vehicle” value is reported as 85 ± 6 % Vehicle. Moreover, the “hAC2 % Inhib.” value on hAC2 [6] is given as −142%.
